From US20240226234A1, “WNT5A PEPTIDES FOR THE TREATMENT OF ACUTE M[…]” (W[…], priority 2021, published 2024)
No end group written: not given here. *: point of attachment. For = O=C*

How the values were obtained:
U937 cells = test: ROS production by flow cytometry, U937 cells; type: cell-based, human; details: 72 h; for ROS production (MFI): U937, 2D culture on HS5 stromal cells; for ROS production (mean fluorescence intensity): U937, monoculture
Protocol: (§1) A panel of human myeloid leukemia cell lines (HL60, K562, KG1a, THP1 and U937) and HS-5 mesenchymal stromal cells lineage were cultured in Roswell Park Memorial Institute medium-1640 (RPMI; Sigma) containing 10% Fetal Bovine Serum (Gibco), glutamine (2 mM; Sigma), penicillin (100 μg/mL; Sigma), streptomycin (100 μg/mL; Sigma), and amphotericin B (0.25 μg/mL; Gibco). The cells were maintained in a humidified atmosphere at 37° C. and 5% CO2 and the experiments were performed when they reached exponential growth. For the assays, cells were seeded on a 24-well plate and treated or not with Foxy-5 for 72 hours.
(§2) Cells treated with Foxy or with vehicle were collected and intracellular ROS generation was measured by flow cytometry following staining with DCFDA ([…]; Sigma). Acquisition of cells was performed on a FACScalibur flow cytometer (BD) and analysis was carried out using the FlowJo software.
(§3) Leukemia cell lines were treated for 72 h with Foxy-5, at doses of 50 and 100 μM, or vehicle, stained with DCFHA dye, and analyzed by flow cytometry.

HL60 cells = test: ROS production by flow cytometry, HL60 cells; type: cell-based, human; details: 72 h; for ROS production (MFI): HL60, 2D culture on HS5 stromal cells; for ROS production (mean fluorescence intensity): HL60, monoculture
Protocol: as §1, §2, §3

K562 cells = test: Transwell chemotaxis assay toward CXCL12, K562 cells; type: cell-based, human; details: K562, Foxy-5 100 μM 72 h pretreatment, CXCL12 100 ng/mL, 24 h
Protocol: (§4) Leukemic cell lines, pretreated or not with Foxy-5 (72 hours of stimulation) were tested for chemotaxis in Transwell-based assays for Chemotaxis (6.5 mm diameter, 8 μm pore size; Corning). Polycarbonate membranes were incubated with poly-L-lysine (1 mg/mL) for 1 hour at 37° C. followed by saline buffer washing. Briefly, cells were collected, washed with media containing bovine serum albumin (0.1% BSA; Sigma), and then seeded at a density of 5×10^5 cells into the upper chamber of the transwell. The lower chamber was filled with media containing 0.5% BSA (negative control), media containing 10% FBS (positive control) and media 5 containing 0.5% BSA with CXCL12 (100 ng/ml; Peprotech) (Melo et al., 2014). Following 6 h or 24 h of incubation at 37° C., cells that migrated into the lower chamber were collected, centrifuged, resuspended in saline buffer and counted. The number of migrated cells was expressed as a percentage of the input, i.e., the cells number applied directly to the lower compartment in parallel wells. The migration of cells was normalized to 100%+/−standard deviation (SD) of triplicates (Favaro et al., 2013).
(§5) We investigated whether restoring of WNT5A could enable the modulation CXCL12-induced chemotaxis of leukemia cells. […]

THP1 cells [1] = test: Transwell chemotaxis assay toward CXCL12, THP1 cells; type: cell-based, human; details: THP1, Foxy-5 100 μM 72 h pretreatment, CXCL12 100 ng/mL, 24 h
Protocol: as §4, §5

THP1 cells [2] = test: Actin polymerization assay, THP1 cells; type: cell-based, human; details: THP1, Foxy-5 100 μM 72 h
Protocol: F-actin polymerization was analyzed in treated leukemic cell lines using AlexaFluor 633-labeled phalloidin (A22284, Invitrogen) before and after CXCL12 stimulation. The cells were stimulated with CXCL12 (300 ng/ml; Peprotech) in serum-free media at 37 °C for 30 and 120 seconds. The reaction was stopped by adding 3 volumes of paraformaldehyde (3.7%) at room temperature for 10 min, then washed and permeabilized on ice. Cells were stained with 633-phalloidin (2 mg/mL). Flow cytometric data were analyzed using a FACS flow cytometer (BD) followed by FlowJo software analysis. The F-actin content obtained were normalized calculating the ratio between each stimulated cells-mean fluorescence intensity (MFI) values and the nonstimulated cells MFI from the basal levels of the control cells and expressed as fold change.
Therefore, we performed a flow cytometry analysis to evaluate whether Foxy-5 treatment would be able to disrupt actin polymerization. Leukemia cell lines were treated with Foxy-5 (100 μM) or vehicle during 72 hours, stimulated with CXCL12 (300 ng/ml) for 30 or 120 seconds, and stained with […] for detection of actin polymerization by flow cytometry. […] Thus, a significant reduction of actin polymerization was shown after Foxy-5 treatment when compared to untreated cells after 30 seconds of CXCL12 induction (P<. 001).

KG1a cells = test: Autophagy assay (acridine orange), KG1a cells; type: cell-based, human; details: 2D culture, 72 h
Protocol: as §1
Cells treated with Foxy or with vehicle were collected and acids vesicles were measured by flow cytometry following staining with Acridine Orange (0.01 mg/mL; Sigma). Acquisition of cells was performed on a FACScalibur flow cytometer (BD) and analysis was carried out using the FlowJo software 4.
As autophagy is required for sustaining leukemia cell growth by induction of ROS production, we measured the levels of acidic granule formation by flow cytometry after Foxy-5 or vehicle treatment. […]

U937 xenografts = test: U937 xenograft mouse model, tumour growth; type: in vivo; details: NOD/SCID mice, Foxy-5 40 μg/μL i.p. once every 2 days
Text: The control group received equal amounts of vehicle solution.

**Q.** What does the source list for “Foxy-5: Formylated hexapeptide fragment of WNT5A: MDGCEL (SEQ. ID. NO. 3) with methionine in position 1 as N-formyl methionine; WNT5A-mimicking compound (For-MDGCEL; listed as Homo sapiens)”?
**A.** ROS production (MFI) (U937 cells; Foxy-5 50 μM): 20.90 (range 19.90-22.63) MFI; ROS production (MFI) (U937 cells; Foxy-5 100 μM): 23.50 (range 21.70-23.80) MFI; ROS production (mean fluorescence intensity) (U937 cells; Foxy-5 50 μM): 7.32 (range 4.80-8.67) MFI; ROS production (mean fluorescence intensity) (U937 cells; Foxy-5 100 μM): 7.09 (range 4.70-8.40) MFI; ROS production (MFI) (HL60 cells; Foxy-5 50 μM): 28.52 (range 26.37-30.00) MFI; ROS production (MFI) (HL60 cells; Foxy-5 100 μM): 28.50 (range 25.03-30.30) MFI; ROS production (mean fluorescence intensity) (HL60 cells; Foxy-5 50 μM): 17.45 (range 16.40-19.30) MFI; ROS production (mean fluorescence intensity) (HL60 cells; Foxy-5 100 μM): 10.32 (range 10.10-10.80) MFI; CXCL12-induced chemotaxis (migrated cells as percentage of the input, average) (K562 cells): 1.52%; CXCL12-induced chemotaxis (migrated cells as percentage of the input, average) (THP1 cells [1]): 11.17%; F-actin content following CXCL12 stimulation (THP1 cells [2]; CXCL12 300 ng/ml for 30 seconds): 3.56 fold increase; F-actin content following CXCL12 stimulation (THP1 cells [2]; CXCL12 300 ng/ml for 120 seconds): 1.59 fold; autophagy (acidic granule formation, acridine orange, average) (KG1a cells; Foxy-5 50 μM): 27.30 (range 27.20-29.83) MFI; autophagy (acidic granule formation, acridine orange, average) (KG1a cells; Foxy-5 100 μM): 21.55 (range 19.05-22.40) MFI; tumour volume (median) (U937 xenografts; 9 days): 469 mm^3; inhibition of tumour growth (U937 xenografts; vs control group at day 9): 55.46%; inhibition of tumour weight (U937 xenografts; vs control group at day 9): 45.51%
